Laboratory results from ChEMBL document CHEMBL3817761, “Chenopodium album metabolites act as dual topoisomerase inhibitors and induce apoptosis in the MCF7 cell line” (Medchemcomm, 2016).
Blank lines part the entries; values can stand above or below the compound they belong to. The source made the active and inactive calls. The calls are words filed in the database; no cut-off is given here.

Key:
MCF7 [1] = test: Cytotoxicity against human MCF7 cells assessed as reduction in cell viability after 72 hrs by MTT assay; assay type: functional, cell-based; settings: MCF7, 72 h
[2] = Cytotoxicity against human SKBR3 cells assessed as reduction in cell viability after 72 hrs by MTT assay; assay type: functional, cell-based; settings: SK-BR-3, 72 h
[3] = Cytotoxicity against human HCT116 cells assessed as reduction in cell viability after 72 hrs by MTT assay; assay type: functional, cell-based; settings: HCT-116, 72 h
[4] = Cytotoxicity against human MOLT4 cells assessed as reduction in cell viability after 72 hrs by MTT assay; assay type: functional, cell-based; settings: MOLT-4, 72 h
[5] = target: T1, DNA topoisomerase 1 (Homo sapiens) (UniProt P11387); test: Inhibition of human recombinant topoisomerase 1-mediated relaxation of supercoiled pBS (SK+) DNA at 60 uM after 30 mins by ethidium bromide staining based agarose gel electrophoresis
T1 sequence (whole entry): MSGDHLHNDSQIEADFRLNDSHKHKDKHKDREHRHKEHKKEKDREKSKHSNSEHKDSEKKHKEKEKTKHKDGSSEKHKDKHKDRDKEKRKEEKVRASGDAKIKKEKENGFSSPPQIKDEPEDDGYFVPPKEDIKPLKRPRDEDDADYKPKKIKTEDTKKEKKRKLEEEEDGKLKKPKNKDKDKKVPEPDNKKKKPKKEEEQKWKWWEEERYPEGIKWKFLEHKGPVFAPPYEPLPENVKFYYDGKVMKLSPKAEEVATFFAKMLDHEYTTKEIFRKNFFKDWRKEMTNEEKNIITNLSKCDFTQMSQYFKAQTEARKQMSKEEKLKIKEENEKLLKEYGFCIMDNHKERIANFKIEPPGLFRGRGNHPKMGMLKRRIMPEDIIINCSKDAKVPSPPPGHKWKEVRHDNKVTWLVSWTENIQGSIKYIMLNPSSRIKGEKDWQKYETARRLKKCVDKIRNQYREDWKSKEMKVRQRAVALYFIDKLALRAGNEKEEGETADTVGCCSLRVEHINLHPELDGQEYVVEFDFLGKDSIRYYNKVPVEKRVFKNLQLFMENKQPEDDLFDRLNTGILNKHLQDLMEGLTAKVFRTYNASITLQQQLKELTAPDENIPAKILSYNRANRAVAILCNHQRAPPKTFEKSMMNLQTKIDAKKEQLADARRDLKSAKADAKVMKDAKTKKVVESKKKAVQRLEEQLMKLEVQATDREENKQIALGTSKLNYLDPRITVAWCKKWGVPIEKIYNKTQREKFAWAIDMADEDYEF

[6] = target: DNA topoisomerase 2-alpha (Homo sapiens) (UniProt P11388); test: Inhibition of human recombinant topoisomerase 2-mediated relaxation of supercoiled pBS (SK+) DNA at 60 uM after 30 mins by ethidium bromide staining based agarose gel electrophoresis
[7] = target: T1, DNA topoisomerase 1 (Homo sapiens); test: Poisoning activity at human recombinant topoisomerase 1 assessed as stabilization of enzyme-supercoiled pBS (SK+) DNA complex at 60 uM after 30 mins by ethidium bromide staining based agarose gel electrophoresis
[8] = target: DNA topoisomerase 2-alpha (Homo sapiens) (UniProt P11388); test: Poisoning activity at human recombinant topoisomerase 2 assessed as stabilization of enzyme-supercoiled pBS (SK+) DNA complex at 60 uM after 30 mins by ethidium bromide staining based agarose gel electrophoresis
[9] = target: T1, DNA topoisomerase 1 (Homo sapiens); test: Poisoning activity at topoisomerase 1 in human MCF7 cells at 10 uM after 12 hrs by immunoband depletion assay; assay type: cell-based
[10] = target: DNA topoisomerase 2-alpha (Homo sapiens) (UniProt P11388); test: Poisoning activity at topoisomerase 2 in human MCF7 cells at 10 uM after 12 hrs by immunoband depletion assay; assay type: cell-based
[11] = target: T1, DNA topoisomerase 1 (Homo sapiens); test: Inhibition of CPT mediated formation of topoisomerase 1-supercoiled pBS (SK+) DNA complex in human MCF7 cells at 10 uM preincubated for 2 hrs followed by CPT addition measured after 4 to 12 hrs by immunoband depletion assay; assay type: cell-based
[12] = target: DNA topoisomerase 2-alpha (Homo sapiens) (UniProt P11388); test: Inhibition of ETO mediated formation of topoisomerase 2-supercoiled pBS (SK+) DNA complex in human MCF7 cells at 10 uM preincubated for 2 hrs followed by ETO addition measured after 4 to 12 hrs by immunoband depletion assay; assay type: cell-based
MCF7 [13] = test: Induction of apoptosis in human MCF7 cells assessed as viable cells at 11.33 uM after 48 hrs by Annexin-V-FITC/propidium iodide staining based flow cytometry (reference value: 99.2 %); assay type: functional; settings: MCF7, 48 h, read-out: Activity
MCF7 [14] = test: Induction of apoptosis in human MCF7 cells assessed as late apoptotic cells at 11.33 uM after 48 hrs by Annexin-V-FITC/propidium iodide staining based flow cytometry relative to control; assay type: functional
MCF7 [15] = test: Induction of mitochondrial membrane depolarization in human MCF7 cells at 11.33 uM after 24 hrs by JC-1 staining based FACS assay (reference value: 9.9 %); assay type: functional
MCF7 [16] = test: Induction of ROS accumulation in human MCF7 cells at 11.33 uM after 12 hrs by CM-H2-DCFDA probe based flow cytometry (reference value: 5.1 %); assay type: functional
MCF7 [17] = test: Induction of apoptosis in human MCF7 cells assessed as caspase 9 cleavage at 11.33 uM after 48 hrs by Western blot analysis; assay type: functional, cell-based
MCF7 [18] = test: Induction of apoptosis in human MCF7 cells assessed as caspase 7 cleavage at 11.33 uM after 48 hrs by Western blot analysis; assay type: functional, cell-based
MCF7 [19] = test: Cell cycle arrest in human MCF7 cells assessed as accumulation at G2/M phase at 11.33 uM after 24 hrs by propidium iodide staining based flow cytometry (reference value: 25 %); assay type: functional
MCF7 [20] = test: Induction of mitochondrial membrane depolarization in human MCF7 cells at 11.33 uM by JC-1 staining based FACS assay; assay type: functional, cell-based; settings: TDE = time-dependent effect
MCF7 [21] = test: Induction of mitochondrial membrane depolarization in human MCF7 cells assessed as ratio of red to green fluorescence at 11.33 uM after 48 hrs by JC-1 staining based FACS assay (reference value: 9.1); assay type: functional
MCF7 [22] = test: Induction of apoptosis in human MCF7 cells assessed as viable cells at 8.27 uM after 24 hrs by Annexin-V-FITC/propidium iodide staining based flow cytometry (reference value: 95.9 %); assay type: functional; settings: MCF7, 24 h, read-out: Activity
MCF7 [23] = test: Induction of apoptosis in human MCF7 cells assessed as early apoptotic cells at 8.27 uM after 24 hrs by Annexin-V-FITC/propidium iodide staining based flow cytometry (reference value: 2.3 %); assay type: functional
MCF7 [24] = test: Induction of apoptosis in human MCF7 cells assessed as viable cells at 8.27 uM after 48 hrs by Annexin-V-FITC/propidium iodide staining based flow cytometry (reference value: 99.2 %); assay type: functional; settings: MCF7, 48 h, read-out: Activity
MCF7 [25] = test: Cell cycle arrest in human MCF7 cells assessed as accumulation at G0/G1 phase at 8.27 uM after 48 hrs by propidium iodide staining based flow cytometry (reference value: 59.7 %); assay type: functional
MCF7 [26] = test: Cell cycle arrest in human MCF7 cells assessed as accumulation at S phase at 8.27 uM after 48 hrs by propidium iodide staining based flow cytometry (reference value: 20.6 %); assay type: functional
MCF7 [27] = test: Induction of mitochondrial membrane depolarization in human MCF7 cells assessed as ratio of red to green fluorescence at 8.27 uM after 24 hrs by JC-1 staining based FACS assay (reference value: 9.1); assay type: functional

Sequence of DNA topoisomerase 2-alpha (Homo sapiens) (P11388 whole entry): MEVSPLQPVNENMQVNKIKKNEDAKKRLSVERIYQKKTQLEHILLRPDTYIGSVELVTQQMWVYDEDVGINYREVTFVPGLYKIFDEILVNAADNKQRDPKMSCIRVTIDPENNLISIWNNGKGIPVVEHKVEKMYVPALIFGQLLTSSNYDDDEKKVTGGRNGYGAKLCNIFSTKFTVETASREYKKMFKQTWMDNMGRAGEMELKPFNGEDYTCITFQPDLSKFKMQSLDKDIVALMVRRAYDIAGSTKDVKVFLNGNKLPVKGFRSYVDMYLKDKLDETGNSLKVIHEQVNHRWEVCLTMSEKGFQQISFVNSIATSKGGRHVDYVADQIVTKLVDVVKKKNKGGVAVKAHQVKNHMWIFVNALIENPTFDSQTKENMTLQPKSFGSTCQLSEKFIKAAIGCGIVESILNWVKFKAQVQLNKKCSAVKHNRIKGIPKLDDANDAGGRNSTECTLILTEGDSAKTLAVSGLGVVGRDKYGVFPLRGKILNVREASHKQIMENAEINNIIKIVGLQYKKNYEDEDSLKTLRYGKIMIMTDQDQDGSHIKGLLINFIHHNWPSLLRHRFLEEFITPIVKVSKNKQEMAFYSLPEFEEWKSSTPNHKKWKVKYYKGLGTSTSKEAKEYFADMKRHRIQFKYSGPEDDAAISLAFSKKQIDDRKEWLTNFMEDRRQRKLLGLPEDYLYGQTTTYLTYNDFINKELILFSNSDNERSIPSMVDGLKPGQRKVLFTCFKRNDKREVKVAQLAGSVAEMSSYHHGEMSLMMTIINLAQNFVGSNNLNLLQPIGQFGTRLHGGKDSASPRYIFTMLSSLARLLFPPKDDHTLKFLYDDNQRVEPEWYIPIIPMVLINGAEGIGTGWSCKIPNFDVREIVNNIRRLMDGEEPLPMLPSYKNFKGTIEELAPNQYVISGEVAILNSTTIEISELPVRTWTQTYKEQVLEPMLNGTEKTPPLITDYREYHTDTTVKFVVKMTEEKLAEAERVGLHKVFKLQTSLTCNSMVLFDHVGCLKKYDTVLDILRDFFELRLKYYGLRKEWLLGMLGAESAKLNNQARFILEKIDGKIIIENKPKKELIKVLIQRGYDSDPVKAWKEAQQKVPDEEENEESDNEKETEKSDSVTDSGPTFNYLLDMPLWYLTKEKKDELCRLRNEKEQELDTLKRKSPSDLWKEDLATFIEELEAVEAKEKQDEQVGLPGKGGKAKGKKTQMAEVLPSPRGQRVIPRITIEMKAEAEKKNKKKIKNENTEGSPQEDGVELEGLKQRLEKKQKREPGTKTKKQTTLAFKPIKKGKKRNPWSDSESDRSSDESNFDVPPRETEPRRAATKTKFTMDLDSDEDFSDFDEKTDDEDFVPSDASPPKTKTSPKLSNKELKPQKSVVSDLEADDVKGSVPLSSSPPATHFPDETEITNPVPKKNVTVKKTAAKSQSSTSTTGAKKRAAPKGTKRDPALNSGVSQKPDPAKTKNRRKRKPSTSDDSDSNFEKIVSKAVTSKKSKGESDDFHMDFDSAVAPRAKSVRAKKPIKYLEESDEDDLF

- inhibition [5]: Active
- inhibition [6]: Active
- inhibition [11]: Active
- inhibition [12]: Active
Compound: CC1(C)CC[C@]2(C(=O)O)CC[C@]3(C)C(=CC[C@@H]4[C@@]5(C)CC[C@H](O[C@@H]6O[C@H](C(=O)O)[C@@H](O)[C@H](O)[C@H]6O)C(C)(C)[C@@H]5CC[C@]43C)[C@@H]2C1
- IC50 (MCF7 [1]): 11.3 µM
- IC50 [2]: 11.9 µM
- IC50 [3]: 18 µM
- IC50 [4]: 13.3 µM
- Activity [7]: inactive
- Activity [8]: inactive
- Activity [9]: inactive
- Activity [10]: inactive
- viability at 11.33 µM (MCF7 [13]): 52%
- Activity (MCF7 [14]): 1.3%
- Activity (MCF7 [15]): 14%
- Activity (MCF7 [16]): 50.4%
- Activity (MCF7 [17]): Active
- Activity (MCF7 [18]): Active
- Activity (MCF7 [19]): 24.3%
- Activity (MCF7 [20]): tde
- Ratio (MCF7 [21]): 0.821

Compound: C[C@@H]1CC[C@@]2(OC1)O[C@H]1C[C@H]3[C@@H]4CC[C@H]5C[C@@H](O[C@@H]6O[C@H](CO)[C@H](O[C@@H]7O[C@H](CO)[C@@H](O)[C@H](O[C@@H]8OC[C@@H](O)[C@H](O)[C@H]8O)[C@H]7O[C@@H]7O[C@H](CO)[C@@H](O)[C@H](O)[C@H]7O)[C@H](O)[C@H]6O)CC[C@]5(C)[C@H]4CC[C@]3(C)[C@H]1[C@@H]2C [DEGALACTOTIGONIN]
- IC50 (MCF7 [1]): 8.27 µM
- IC50 [2]: 9.33 µM
- IC50 [3]: 15.4 µM
- IC50 [4]: 11.7 µM
- inhibition [5]: Active
- inhibition [6]: Active
- Activity [7]: inactive
- Activity [8]: inactive
- Activity [9]: inactive
- Activity [10]: inactive
- inhibition [11]: Active
- inhibition [12]: Active
- viability at 8.27 µM (MCF7 [22]): 91%
- Activity (MCF7 [23]): 5.5%
- viability at 8.27 µM (MCF7 [24]): 0.7%
- Activity (MCF7 [25]): 36.3%
- Activity (MCF7 [26]): 40.1%
- Ratio (MCF7 [27]): 9
